{"source": "patent US20250345426A1", "about": "“METHODS FOR MAKING AND USING THERAPEUTIC CELLS” (THE REGENTS OF THE UNIVERSITY OF CALIFORNIA, priority 2022, published 2025)", "key": {"Raji tumor xenografts": {"tested_on": "Raji tumor xenografts", "assay": "Raji xenograft in NSG mice treated with inhibitor-preconditioned rituximab CAR-T cells", "assay_type": "in vivo", "details": "for prolonged median survival compared to vehicle (DMSO)-treated rituximab CAR-T cells: two doses of preconditioned rituximab CAR-T cells", "protocol": "FIG. 2A-C. […] (A) Tumor signal (in photons/sec/cm^2/sr) in individual animals as quantified by bioluminescence imaging. […] Statistical significance was determined by Mann-Whitney U test with Holm-Sidak correction for multiple comparisons. * p<0.05, n.s. not statistically significant. (B) Kaplan-Meier survival curve (top) and table of median survival period in days (bottom). (C) Frequency of human CD45+EGFRt+ cell in peripheral blood collected from mice on day 8 after first dose of T-cell infusion. Statistical significance was determined by two-tailed Student's t test with Sidak correction for multiple comparisons. * p<0.05, ** p<0.01.\nIn vivo studies. Six- to eight-week-old NOD/SCID/IL-2Rγ^null (NSG) mice were obtained from UCLA Department of Radiation and Oncology. The protocol was approved by UCLA Institutional Animal Care and Used Committee. […] Details of the dose and timing of tumor injection, T-cell injection, and tumor re-challenge are indicated in the text and figures. Tumor progression/regression was monitored with an IVIS Illumina III LT Imaging System (PerkinElmer). Blood samples were harvested via retro-orbital bleeding 3 days post T-cell injection and every 10-13 days thereafter. Mice were euthanized at the humane endpoint. Bone marrow, spleen and liver were collected after euthanasia. Tissues were ground and passed through a 100-μm filter followed by red-blood-cell lysis prior to flow-cytometry analysis."}, "Raji target cells": {"tested_on": "Raji target cells", "assay": "24-hr lysis assay of inhibitor-treated rituximab CD20 CAR-T cells against Raji", "assay_type": "cell-based", "details": "three E:T ratios, vs vehicle-treated", "source_text": "(§1) FIG. 1A-G. Pharmacological inhibition of PI3K/AKT pathway modulates antigen-independent CAR-T cell activation. (A) Table of pharmacological inhibitors used during ex vivo expansion of rituximab CAR-T cells (left). Simplified schematic of the PI3K/AKT signaling axis where black arrows represent activation (right). (B) Activation marker expression by CAR^+ T cells in the absence of antigen stimulation after 5 days of pharmacological modulation. Data bars indicate the means of technical triplicates±1 S.D. The bars in FIG. 1B represent data from, untreated, vehicle, CAL-101, AZD5363, Rapamycin, MYCi975, and Betulin, respectively, from left to right. (C) TNF-α production CAR^+ T cells in the absence of antigen stimulation as quantified by intracellular flow cytometry. Data bars indicate the means of technical triplicates±1 S.D. The bars in FIG. 1B and FIG. 1C represent data from, untreated, vehicle, CAL-101, AZD5363, Rapamycin, MYCi975, and Betulin, respectively, from left to right. (D) Proliferation of CAR^+ T cells stained with CellTrace Violet (CTV) dye was assayed after a 4-day culture in the absence of target cells or exogenous cytokines. Data shown in the histogram correspond to one of technical triplicates shown in the bar graph. The bars FIG. 1D represent data from, EGFRt, untreated, vehicle, CAL-101, AZD5363, Rapamycin, MYCi975, and Betulin, respectively, from left to right. (E) % distribution of T-cell subtypes in CAR^+ T cells after 5 days of pharmacological modulation. Data bars indicate the means of technical triplicates±1 S.D. (F) Rituximab CAR-T cell fold expansion after 6 days of inhibitor culture was tracked. […] Statistical significance in panels B, C, and D was determined by two-tailed Student's t test with Sidak correction for multiple comparisons. * p<0.05, ** p<0.01, *** p<0.001, n.s. not statistically significant.\nCytotoxicity assay with Raji cells. […] Remaining target cells were quantified by MACSQuant VYB flow cytometer 24-hr post co-incubation."}, "rituximab CAR-T cells [1]": {"tested_on": "rituximab CAR-T cells", "assay": "Antigen-independent activation and exhaustion marker expression by flow cytometry, rituximab CAR-T cells", "assay_type": "cell-based, human", "details": "5 days inhibitor culture, no antigen, vs vehicle (DMSO), CAL-101 1 μM, AZD5363 1 μM", "source_text": "FIG. 1A-G. Pharmacological inhibition of PI3K/AKT pathway modulates antigen-independent CAR-T cell activation. (A) Table of pharmacological inhibitors used during ex vivo expansion of rituximab CAR-T cells (left). Simplified schematic of the PI3K/AKT signaling axis where black arrows represent activation (right). (B) Activation marker expression by CAR^+ T cells in the absence of antigen stimulation after 5 days of pharmacological modulation. Data bars indicate the means of technical triplicates±1 S.D. The bars in FIG. 1B represent data from, untreated, vehicle, CAL-101, AZD5363, Rapamycin, MYCi975, and Betulin, respectively, from left to right. (C) TNF-α production CAR^+ T cells in the absence of antigen stimulation as quantified by intracellular flow cytometry. Data bars indicate the means of technical triplicates±1 S.D. The bars in FIG. 1B and FIG. 1C represent data from, untreated, vehicle, CAL-101, AZD5363, Rapamycin, MYCi975, and Betulin, respectively, from left to right. (D) Proliferation of CAR^+ T cells stained with CellTrace Violet (CTV) dye was assayed after a 4-day culture in the absence of target cells or exogenous cytokines. Data shown in the histogram correspond to one of technical triplicates shown in the bar graph. The bars FIG. 1D represent data from, EGFRt, untreated, vehicle, CAL-101, AZD5363, Rapamycin, MYCi975, and Betulin, respectively, from left to right. (E) % distribution of T-cell subtypes in CAR^+ T cells after 5 days of pharmacological modulation. Data bars indicate the means of technical triplicates±1 S.D. (F) Rituximab CAR-T cell fold expansion after 6 days of inhibitor culture was tracked. T-cell fold expansion was normalized to the untreated control with each data point representing biological replicates collected from healthy donors. The bars FIG. 1F represent data from, EGFRt, vehicle, CAL-101, AZD5363, Rapamycin, MYCi975, and Betulin, respectively, from left to right. (G) A 24-hr lysis assay of CD20 CAR-T cells against Raji target cells at three effector-to-target (E:T) ratios. Data bars indicate the means of technical triplicates±1 S.D. Percent lysis was normalized to cell counts in target-only wells. […] In (B)-(F), results are representative two independent experiments using cells from of two heathy donors. Statistical significance in panels B, C, and D was determined by two-tailed Student's t test with Sidak correction for multiple comparisons. * p<0.05, ** p<0.01, *** p<0.001, n.s. not statistically significant. […]\n(§2) Antibody staining for flow-cytometry analysis. EGFRt expression was measured with biotinylated cetuximab (Eli Lilly; biotinylated in-house), followed by PE-conjugated streptavidin (Jackson ImmunoResearch #016-110-084). CAR expression was quantified by surface epitope staining using anti-Fc (Alexa Fluor 488, Jackson ImmunoResearch #709-546-098). Antigen-independent activation-marker expression of CAR-T cells was evaluated by antibody staining for CD137 (PE/Cy7, clone 4B4-1, BioLegend #309818), and PD-1 (FITC, clone EH12.2H7, BioLegend #329904) on Days 18 (i.e., 18 days after Dynabead addition and 11 days after Dynabead removal) and after 5-6 days of inhibitor culture (FIG. 1, FIG. 3). T-cell subtype of CAR-T cells was evaluated by antibody staining for CD45RO (VioBlue®, clone REA611, Miltenyi #130-119-620) and CD62L (APC, clone DREG56, Invitrogen #17-0629-42) after 5-6 days of inhibitor culture (FIG. 1, FIG. 3). […]"}, "rituximab CAR-T cells [2]": {"tested_on": "rituximab CAR-T cells", "assay": "T-cell subtype distribution (CD45RO/CD62L staining), rituximab CAR-T cells", "assay_type": "cell-based, human", "details": "5 days of pharmacological modulation, vs vehicle", "source_text": "as §1, with “cytokines.” for “cytokines. Data shown in the histogram correspond to one of technical triplicates shown in the bar graph. The bars FIG. 1D represent data from, EGFRt, untreated, vehicle, CAL-101, AZD5363, Rapamycin, MYCi975, and Betulin, respectively, from left to right. (E) % distribution of T-cell subtypes in CAR^+ T cells after 5 days of pharmacological modulation. Data bars indicate the means of technical triplicates±1 S.D. (F) Rituximab CAR-T cell fold expansion after 6 days of inhibitor culture was tracked.”, “significant. […]” for “significant.”\nas §2, with “3).” for “3). T-cell subtype of CAR-T cells was evaluated by antibody staining for CD45RO (VioBlue®, clone REA611, Miltenyi #130-119-620) and CD62L (APC, clone DREG56, Invitrogen #17-0629-42) after 5-6 days of inhibitor culture (FIG. 1, FIG. 3).”"}, "rituximab CAR-T cells [3]": {"tested_on": "rituximab CAR-T cells", "assay": "CellTrace Violet proliferation assay without target cells or exogenous cytokines, rituximab CAR-T cells", "assay_type": "cell-based, human", "details": "4-day culture, CTV dye, vs vehicle (DMSO)", "procedure": "(D) Proliferation of CAR^+ T cells stained with CellTrace Violet (CTV) dye was assayed after a 4-day culture in the absence of target cells or exogenous cytokines. Data shown in the histogram correspond to one of technical triplicates shown in the bar graph. The bars FIG. 1D represent data from, EGFRt, untreated, vehicle, CAL-101, AZD5363, Rapamycin, MYCi975, and Betulin, respectively, from left to right. […] In (B)-(F), results are representative two independent experiments using cells from of two heathy donors. Statistical significance in panels B, C, and D was determined by two-tailed Student's t test with Sidak correction for multiple comparisons. * p<0.05, ** p<0.01, *** p<0.001, n.s. not statistically significant.\nFor inhibitor analysis, starting on Day 8, T cells were cultured in T-cell media with cytokine support in the presence of 1 μM PI3K8 isoform inhibitor (CAL-101, Apex Biotechnology #A300520)), 1 μM AKT inhibitor (AZD5363, Selleckchem #S8019), 100 nM mTORC1 inhibitor (Rapamycin, LC Laboratories #R-5000), 2 μM c-Myc inhibitor (MYCi975, MedChemExpress #HY-129601), SREBP inhibitor (Betulin, MilliporeSigma #92648), or DMSO as a vehicle control. Each inhibitor molecule was solubilized in DMSO.\nProliferation assay. […] Cultures were passaged as needed, and CTV dilution was analyzed on a MACSQuant VYB flow cytometer after a 4-day co-incubation."}, "rituximab CAR-T cells [4]": {"tested_on": "rituximab CAR-T cells", "assay": "TNF-α production without antigen stimulation, intracellular flow cytometry, rituximab CAR-T cells", "assay_type": "cell-based, human", "details": "vs vehicle (DMSO)", "source_text": "as §1, with “cytokines.” for “cytokines. Data shown in the histogram correspond to one of technical triplicates shown in the bar graph. The bars FIG. 1D represent data from, EGFRt, untreated, vehicle, CAL-101, AZD5363, Rapamycin, MYCi975, and Betulin, respectively, from left to right. (E) % distribution of T-cell subtypes in CAR^+ T cells after 5 days of pharmacological modulation. Data bars indicate the means of technical triplicates±1 S.D. (F) Rituximab CAR-T cell fold expansion after 6 days of inhibitor culture was tracked.”, “significant. […]” for “significant.”"}}, "data": [{"compound": "CO[C@H]1C[C@@H]2CC[C@@H](C)[C@@](O)(O2)C(=O)C(=O)N2CCCC[C@H]2C(=O)O[C@H]([C@H](C)C[C@@H]2CC[C@@H](O)[C@H](OC)C2)CC(=O)[C@H](C)/C=C(\\C)[C@@H](O)[C@@H](OC)C(=O)[C@H](C)C[C@H](C)/C=C/C=C/C=C/1C", "note": "[rapamycin, Rapamycin]", "values": [{"measurement": "prolonged median survival compared to vehicle (DMSO)-treated rituximab CAR-T cells", "setting": "Raji tumor xenografts; NSG mice, Raji i.v.", "value": 1.8, "unit": "folds"}]}, {"compound": "CC[C@H](Nc1ncnc2[nH]cnc12)c1nc2cccc(F)c2c(=O)n1-c1ccccc1", "note": "[CAL-101]", "values": [{"measurement": "prolonged median survival compared to vehicle (DMSO)-treated rituximab CAR-T cells", "setting": "Raji tumor xenografts; NSG mice, Raji i.v.", "value": 1.5, "unit": "folds"}]}, {"compound": "AZD5363", "values": [{"measurement": "lysis of Raji tumor cells", "setting": "Raji target cells", "value": "clustered together"}, {"measurement": "antigen-independent expression of activation and exhaustion markers", "setting": "rituximab CAR-T cells [1]", "value": "significantly reduced"}, {"measurement": "tumor outgrowth / tumor progression", "setting": "Raji tumor xenografts; NSG mice, Raji i.v., preconditioned rituximab CAR-T cells, bioluminescence, vs vehicle control", "value": "delayed tumor outgrowth"}, {"measurement": "prolonged median survival compared to vehicle (DMSO)-treated rituximab CAR-T cells", "setting": "Raji tumor xenografts; NSG mice, Raji i.v.", "value": 1.6, "unit": "folds"}, {"measurement": "in vivo expansion of CAR-T cells", "setting": "Raji tumor xenografts; human CD45+EGFRt+ cells in peripheral blood, day 8 after first T-cell dose, vs control", "value": "significantly increased"}, {"measurement": "fraction of naïve and stem-cell memory T (Tn/scm) cells / T-cell differentiation", "setting": "rituximab CAR-T cells [2]", "value": "preserved a greater fraction"}, {"measurement": "antigen-independent cell division", "setting": "rituximab CAR-T cells [3]", "value": "significantly reduced"}, {"measurement": "TNF-α production in the absence of antigen stimulation", "setting": "rituximab CAR-T cells [4]", "value": "significantly reduced"}]}]}
